Results: ChEMBL document CHEMBL5380853, “Lead Optimization of Androgen Receptor-HSP27 Disrupting Agents in Glioblastoma” (J Med Chem, 2023)
The source made the active and inactive calls. No cut-off for these calls is given here.

What was measured:
[1] = Apparent Half life in mouse brain at 20 mg/kg, ip measured for 24 hrs by LC-MS/MS analysis; type: ADME, organism-based; details: in vivo
[2] = system: T98G; assay: Down regulation of androgen receptor activity in AR-overexpressing human T98G cells at 50 nM measured after 12 hrs by Western blotting analysis; type: functional, cell-based
[3] = Toxicity in C57BL/6 mouse assessed as spleen histology by measuring intact/distinct spleen-follical at 100 mg/kg, ip treated for 10 days by hematoxylin and eosin staining based assay; type: organism-based; details: in vivo, 240 h, time 10 day
[4] = system: U-87 MG; assay: In vivo antitumor activity against human U87 cells xenografted in mouse assessed as decrease in AR protein level in tumor at 20 mg/kg, ip administered weekly 3 times for 14 days relative to control; type: functional, organism-based; details: U-87MG ATCC, time 14.0 day
[5] = Toxicity in C57BL/6 mouse assessed as physical condition at 100 mg/kg, ip treated for 10 days; type: organism-based; details: in vivo, 240 h, time 10 day
[6] = AUC (0 to infinity) in mouse brain at 20 mg/kg, ip measured for 24 hrs by LC-MS/MS analysis; type: ADME, organism-based; parameters: time 24 hrs, dose 20 mg/kg, route ip; details: in vivo
[7] = Toxicity in C57BL/6 mouse assessed as kidney histology by measuring necrosis/glomerular atrophy at 100 mg/kg, ip treated for 10 days by hematoxylin and eosin staining based assay; type: organism-based; details: in vivo, 240 h, time 10 day
[8] = system: T98G; assay: Down regulation of androgen receptor activity in AR-overexpressing human T98G cells at 100 nM measured after 12 hrs by Western blotting analysis; type: functional, cell-based
[9] = Cmax in mouse brain at 20 mg/kg, ip measured for 24 hrs by LC-MS/MS analysis; type: ADME, organism-based; parameters: dose 20 mg/kg, time 24 hrs, route ip
[10] = AUC (0 to 24 hrs) in mouse plasma at 20 mg/kg, ip measured for 24 hrs by LC-MS/MS analysis; type: ADME, organism-based; parameters: dose 20 mg/kg, time 24 hrs, route ip; details: in vivo
[11] = Toxicity in mouse xenografted with human U87 cells assessed as body weight at 20 mg/kg, ip administered weekly 3 times for 14 days; type: organism-based, U-87MG ATCC; details: in vivo, 336 h, time 14 day
[12] = system: U-87 MG; assay: Antitumor activity against human U87 cells xenografted in mouse assessed as decrease in tumor size at 20 mg/kg, ip administered weekly 3 times for 14 days; type: functional, organism-based; details: U-87MG ATCC, time 14.0 day
[13] = AUC (0 to 24 hrs) in mouse brain at 20 mg/kg, ip measured for 24 hrs by LC-MS/MS analysis; type: ADME, organism-based; parameters: dose 20 mg/kg, time 24 hrs, route ip; details: in vivo
[14] = target: Heat shock protein beta-1 (Homo sapiens) (UniProt P04792); assay: Inhibition of HSP27 chaperone activity in AR-overexpressing human U87 cells assessed as down regulation of androgen receptor level at 25 to 100 nM by Western blotting analysis; type: cell-based; details: dose lower […], dose upper 100.0 nM
Heat shock protein beta-1 (Homo sapiens), sequence (P04792 whole entry): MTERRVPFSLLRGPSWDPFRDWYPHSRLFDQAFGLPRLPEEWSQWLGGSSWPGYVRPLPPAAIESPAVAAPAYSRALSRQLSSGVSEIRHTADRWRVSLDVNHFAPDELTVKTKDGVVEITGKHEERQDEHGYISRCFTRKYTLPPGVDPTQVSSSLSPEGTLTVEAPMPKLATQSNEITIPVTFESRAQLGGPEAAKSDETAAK

[15] = target: Heat shock protein beta-1 (Homo sapiens) (UniProt P04792); assay: Inhibition of HSP27 alpha-crystallin (unknown origin) activity assessed as DTT-induced insulin B chain aggregation at 10 uM measured upto 2 hrs by microplate reader-based HSP27 chaperone activity assay
[16] = system: U-87MG ATCC; assay: Effect on nucleus AR level in AR-overexpressing human U87 cells at 50 nM measured after 12 hrs by immunofluorescence assay; type: functional, cell-based
[17] = system: T98G; assay: Effect on nucleus AR level in AR-overexpressing human T98G cells at 50 nM measured after 12 hrs by immunofluorescence assay; type: functional, cell-based
[18] = AUC (0 to infinity) in mouse plasma at 20 mg/kg, ip measured for 24 hrs by LC-MS/MS analysis; type: ADME, organism-based; parameters: time 24 hrs, dose 20 mg/kg, route ip; details: in vivo
[19] = target: Heat shock protein beta-1 (Homo sapiens) (UniProt P04792); assay: Inhibition of HSP27 in AR-overexpressing human U87 cells assessed as androgen receptor degradation by measuring decrease in free cytoplasmic AR level at 50 nM measured after 12 hrs by immunofluorescence assay; type: cell-based
[20] = system: U-87 MG; assay: In vivo antitumor activity against human U87 cells xenografted in mouse assessed as decrease in tumor weight at 20 mg/kg, ip administered weekly 3 times for 14 days relative to control; type: functional, organism-based; details: U-87MG ATCC, time 14.0 day
[21] = Toxicity in C57BL/6 mouse assessed as liver histology at 100 mg/kg, ip treated for 10 days by hematoxylin and eosin staining based assay; type: organism-based; details: in vivo, 240 h, time 10 day
[22] = Cmax in mouse plasma at 20 mg/kg, ip measured for 24 hrs by LC-MS/MS analysis; type: ADME, organism-based; parameters: time 24 hrs, dose 20 mg/kg, route ip; details: in vivo
[23] = target: Heat shock protein beta-1 (Homo sapiens) (UniProt P04792); assay: Inhibition of HSP27 in AR-overexpressing human T98G cells assessed as androgen receptor degradation by measuring decrease in free cytoplasmic AR level at 50 nM measured after 12 hrs by immunofluorescence assay; type: cell-based
[24] = target: Heat shock protein beta-1 (Homo sapiens) (UniProt P04792); assay: Inhibition of HSP27 chaperone activity in AR-overexpressing human T98G cells assessed as down regulation of androgen receptor level at 25 to 100 nM by Western blotting analysis; type: cell-based; details: dose lower […], dose upper 100.0 nM
[25] = Apparent half life in mouse plasma at 20 mg/kg, ip measured for 24 hrs by LC-MS/MS analysis; type: ADME, organism-based; details: in vivo, ip, 20 mg/kg, 24 h
[26] = target: Heat shock protein beta-1 (Homo sapiens) (UniProt P04792); assay: Inhibition of HSP27 chaperone activity in human T98G cells expressing AR-V7 mutant assessed as down regulation of androgen receptor level at 25 to 100 nM by Western blotting analysis; type: cell-based; details: dose lower […], dose upper 100.0 nM
[27] = Toxicity in C57BL/6 mouse assessed as heart histology by measuring infarcts/inflammatory cell infiltration at 100 mg/kg, ip treated for 10 days by hematoxylin and eosin staining based assay; type: organism-based; details: in vivo, 240 h, time 10 day
[28] = Toxicity in C57BL/6 mouse assessed as lung histology by measuring injury/fibrosis at 100 mg/kg, ip treated for 10 days by hematoxylin and eosin staining based assay; type: organism-based; details: in vivo, 240 h, time 10 day
[29] = Toxicity in C57BL/6 mouse assessed as body weight change at 100 mg/kg, ip treated for 10 days; type: organism-based; details: in vivo, 240 h, time 10 day

Row | t1/2 [1] [h] | AUC [6] [µg·h/g] | AUC [10] [ng·h/mL] | AUC [13] [µg·h/g] | inhibition [14] | inhibition [15] | AUC [18] [ng·h/mL] | inhibition [19] | Compound | Activity [2] | Activity [3] | Activity [4] | Activity [5] | Activity [7] | Activity [8] | Activity [11] | Activity [12] | Activity [16] | Activity [17] | Activity [20] | Activity [21] | other results
1 | 0.57 | 0.62 | 20020 | 0.31 | Active | Active | 32130 | Active | COc1ccc(OC)c(COc2cc(NC(=O)c3ccc4c(c3)OCO4)ccc2NS(C)(=O)=O)c1 | Active | Non-Toxic | Active | Non-Toxic | Non-Toxic | Active | Non-Toxic | Active | inactive | inactive | Active | Non-Toxic | Cmax ([9]; brain, read-out: Cmax): 680 ng/g; Cmax [22]: 20200 ng/mL; inhibition [23]: Active; inhibition [24]: Active; t1/2 [25]: 1.49 h; inhibition [26]: Active; Activity [27]: Non-Toxic; Activity [28]: Non-Toxic; Activity [29]: Non-Toxic
2 | 8.66 | 2.44 | 61920 | 1.34 | Active | Active | 80840 | Active | COc1ccc(OC)c(COc2cc(NC(=O)c3ccc4ccccc4c3)ccc2NS(C)(=O)=O)c1 | Active | Non-Toxic | Active | Non-Toxic | Non-Toxic | Active | Non-Toxic | Active | inactive | inactive | Active | Non-Toxic | Cmax ([9]; in vivo, 24 h): 760 ng/g; Cmax [22]: 30620 ng/mL; inhibition [23]: Active; inhibition [24]: Active; t1/2 [25]: 6.28 h; inhibition [26]: Active; Activity [27]: Non-Toxic; Activity [28]: Non-Toxic; Activity [29]: Non-Toxic
